From US20100152434A1, “Protein Kinase-binding Nucleosides and Associated Methods” (priority 2007, published 2010)
Like-named read-outs stand apart in the source and are kept apart here.

Columns and labels:
[1] = system: UACC-62; assay: cells; settings: Homo sapiens, UACC-62
[2] = system: SF-539
[3] = system: OVCAR-8
[4] = system: IGROV1; assay: cells; settings: Homo sapiens, IGROV-1
[5] = system: OVCAR-4; assay: cells; settings: Homo sapiens, OVCAR-4
[6] = system: SK-MEL-2
[7] = system: A549/ATCC
[8] = system: MALME-3M
[9] = system: OVCAR-3
[10] = system: RPMI-8226; assay: cells; settings: Homo sapiens, RPMI-8226
[11] = system: SF-268
[12] = system: CCRF-CEM
[13] = system: LOX IMVI
[14] = system: RXF 393; assay: cells; settings: Homo sapiens, RXF 393
[15] = system: MDA-MB-231/ATCC; assay: cells; settings: Homo sapiens, MDA-MB-231
[16] = system: SNB-19
[17] = system: CAKI-1
[18] = system: MDA-MB-435; assay: cells; settings: Homo sapiens, MDA-MB-435
[19] = system: NCI-H322M; assay: cells; settings: Homo sapiens
[20] = system: EKVX
[21] = system: HCT-15
[22] = system: SN12C; assay: cells; settings: Homo sapiens
[23] = system: A498; assay: cells; settings: Homo sapiens, A498
[24] = system: MDA-MB-231/ATCC
[25] = system: NCI-H522; assay: cells; settings: Homo sapiens, NCI-H522
[26] = Log10 Concentration −4.0, Molar
[27] = Log10 Concentration −5.0, Molar
[28] = Log10 Concentration −6.0, Molar
[29] = Log10 Concentration −7.0, Molar
[30] = Log10 Concentration −8.0, Molar

In the case of `CNC(=O)NC[C@H]1O[C@@H](n2cnc3c(NC(=O)Nc4ccccc4)ncnc32)C(O[Si](C)(C)C(C)(C)C)[C@H]1O[Si](C)(C)C(C)(C)C` (stereo partly shown) [Compound 25, 2′,3′-Bis-O-(tert-butyldimethylsilyl)-5-deoxy-5′-[(N-methylcarbamoyl)amino]-N^6-(N-phenylcarbamoyl)adenosine], the GI50 [1] is reported as 3.98 µM, the IC50 [1] is reported as greater than 100 µM and the TGI [2] is reported as 1.30E−5 Molar. For the same compound, the “Percent Growth” value [2, 26] was −51%, the “Percent Growth” value [2, 27] was 7% and the “Percent Growth” value [2, 28] was 91%. For the same compound, the “Percent Growth” value [2, 29] was 100%, the “Percent Growth” value [2, 30] was 100% and the TGI [3] was 4.01E−5 Molar. The “Percent Growth” value [3, 26] was −9%, the “Percent Growth” value [3, 27] was 13% and the “Percent Growth” value [3, 28] was 106%. For the same compound, the “Percent Growth” value [3, 29] was 106%, the “Percent Growth” value [3, 30] was 108% and the GI50 [4] was 2740 nM. It also gave an IC50 [4] greater than 100 µM, a GI50 [5] of 3.44 µM and an IC50 [5] greater than 100 µM. For the same compound, the TGI [6] was 5.54E−6 Molar, the “Percent Growth” value [6, 26] was −67% and the “Percent Growth” value [6, 27] was −35%. The “Percent Growth” value [6, 28] was 105%, the “Percent Growth” value [6, 29] was 110% and the “Percent Growth” value [6, 30] was 106%. The TGI [7] was 1.20E−5 Molar, the “Percent Growth” value [7, 26] was −30% and the “Percent Growth” value [7, 27] was 4%. The “Percent Growth” value [7, 28] was 90%, the “Percent Growth” value [7, 29] was 98% and the “Percent Growth” value [7, 30] was 99%. For the same compound, the TGI [8] was 9.84E−6 Molar, the “Percent Growth” value [8, 26] was −48% and the “Percent Growth” value [8, 27] was −1%. The “Percent Growth” value [8, 28] was 96%, the “Percent Growth” value [8, 29] was 88% and the “Percent Growth” value [8, 30] was 105%. For the same compound, the TGI [9] was 5.54E−6 Molar, the “Percent Growth” value [9, 26] was −50% and the “Percent Growth” value [9, 27] was −39%. For the same compound, the “Percent Growth” value [9, 28] was 113%, the “Percent Growth” value [9, 29] was 113% and the “Percent Growth” value [9, 30] was 111%. It also gave a GI50 [10] of 3.27 µM, an IC50 [10] greater than 100 µM and a TGI [11] of 1.40E−5 Molar. The “Percent Growth” value [11, 26] was 45%, the “Percent Growth” value [11, 27] was 8% and the “Percent Growth” value [11, 28] was 102%. The “Percent Growth” value [11, 29] was 106%, the “Percent Growth” value [11, 30] was 104% and the TGI [12] was greater than 1.00E−4 Molar. The “Percent Growth” value [12, 26] was 4%, the “Percent Growth” value [12, 27] was 9% and the “Percent Growth” value [12, 28] was 101%. For the same compound, the “Percent Growth” value [12, 29] was 109%, the “Percent Growth” value [12, 30] was 104% and the TGI [13] was 3.36E−6 Molar. The “Percent Growth” value [13, 26] was −77%, the “Percent Growth” value [13, 27] was −89% and the “Percent Growth” value [13, 28] was 98%. The “Percent Growth” value [13, 29] was 101%, the “Percent Growth” value [13, 30] was 102% and the GI50 [14] was 2140 nM. The IC50 [14] was 7.5 µM, the GI50 [15] was 2810 nM and the IC50 [15] was 28.3 µM. For the same compound, the TGI [16] was greater than 1.00E−4 Molar, the “Percent Growth” value [16, 26] was 7% and the “Percent Growth” value [16, 27] was 29%. The “Percent Growth” value [16, 28] was 91%, the “Percent Growth” value [16, 29] was 100% and the “Percent Growth” value [16, 30] was 97%. The TGI [17] was 7.93E−6 Molar, the “Percent Growth” value [17, 26] was −33% and the “Percent Growth” value [17, 27] was −11%. The “Percent Growth” value [17, 28] was 96%, the “Percent Growth” value [17, 29] was 99% and the “Percent Growth” value [17, 30] was 100%. It also gave a GI50 [18] of 3.41 µM, an IC50 [18] greater than 100 µM and a GI50 [19] of 6.86 µM. The IC50 [19] was greater than 100 µM, the TGI [20] was 3.06E−5 Molar and the “Percent Growth” value [20, 26] was −9%. For the same compound, the “Percent Growth” value [20, 27] was 9%, the “Percent Growth” value [20, 28] was 104% and the “Percent Growth” value [20, 29] was 111%. For the same compound, the “Percent Growth” value [20, 30] was 106%, the TGI [21] was greater than 1.00E−4 Molar and the “Percent Growth” value [21, 26] was 6%. For the same compound, the “Percent Growth” value [21, 27] was 11%, the “Percent Growth” value [21, 28] was 100% and the “Percent Growth” value [21, 29] was 106%. For the same compound, the “Percent Growth” value [21, 30] was 105%, the GI50 [22] was 1810 nM and the IC50 [22] was 6.29 µM. The GI50 [23] was 2030 nM, the IC50 [23] was 1950 nM and the TGI [24] was 5.12E−6 Molar. The “Percent Growth” value [24, 26] was −76%, the “Percent Growth” value [24, 27] was −20% and the “Percent Growth” value [24, 28] was 106%. The “Percent Growth” value [24, 29] was 109%, the “Percent Growth” value [24, 30] was 105% and the GI50 [25] was 2390 nM. For the same compound, the IC50 [25] was greater than 100 µM.
